Test systems include HT29 colon; NCI-H23 lung; SF-268 CNS; CCRF-CEM leukemia; SK-OV-3 ovarian; MALME-3M melanoma; SR leukemia; TK-10 renal; RPMI-8226 leukemia; NCI-H522 lung.
Holding throughout (assay): inhibition of tumour cell growth, NCI panel, 48 h

In PubChem BioAssay (NCI) one finds TGI and GI50 data, which are given here for 15 compounds.

Each structure is given as a SMILES string.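 Interpolation was linear, between the two tested concentrations surrounding the appropriate level; five concentrations were tested over 48 hours in 96-well plates. GI50: concentration for 50% inhibition of growth. TGI: total growth inhibition.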 Bounds are passed on as bounds.

As to `O=[N+]([O-])c1cccc(C2SCc3nc4ccccc4n32)c1` (stereo unspecified), the TGI in the test with HT29 colon, in the test on NCI-H23 lung, in the test on SF-268 CNS, in the test on CCRF-CEM leukemia, in the test with SK-OV-3 ovarian and with MALME-3M melanoma was > 100 µM each time. For the same compound, the TGI in the test on SR leukemia and in the test on TK-10 renal was > 100 µM throughout.
For `CN(C)CCNC(=O)c1cccc2nc3ccc4ccccc4c3nc12`, the TGI stood at 1.25 µM in the test with HT29 colon; 0.221 µM in the test on NCI-H23 lung; 0.675 µM in the test with SF-268 CNS; 1.34 µM in the test with CCRF-CEM leukemia; 2.06 µM in the test on SK-OV-3 ovarian; 0.574 µM with TK-10 renal.
As for `O=C(CC(=O)N1N=C(n2ccc3ccccc32)CC1c1ccccc1)Nc1cccc(Cl)c1` (stereo unspecified), the TGI in the test on RPMI-8226 leukemia, in the test on HT29 colon, in the test on NCI-H23 lung, with SF-268 CNS, in the test with NCI-H522 lung and in the test with CCRF-CEM leukemia was > 100 µM each time. For the same compound, the TGI in the test with SK-OV-3 ovarian, in the test with MALME-3M melanoma and in the test on TK-10 renal was > 100 µM throughout.
With `Nc1nc(-c2ccccc2)c(-c2ccccc2)c(-c2nc(N)nc(-c3ccccc3)c2-c2ccccc2)n1`, the TGI in the test on HT29 colon, in the test with NCI-H23 lung, in the test on SF-268 CNS, in the test on NCI-H522 lung, with SK-OV-3 ovarian and in the test on MALME-3M melanoma was > 100 µM in each case. Moreover, the TGI with SR leukemia and with TK-10 renal was > 100 µM each time.
Take `CCSC1(SCC)CCN(C=NC(C)(C)C)C1`: the TGI with HT29 colon, with NCI-H23 lung, in the test with SF-268 CNS, with NCI-H522 lung, in the test with CCRF-CEM leukemia and with SK-OV-3 ovarian was > 100 µM each time. For the same compound, the TGI in the test with MALME-3M melanoma, in the test with SR leukemia and in the test on TK-10 renal was > 100 µM each time.
As to `COC(=O)CCC(NC(=S)N/N=C(\C)c1ccccn1)C(=O)OC` (stereo unspecified), the TGI in the test on RPMI-8226 leukemia, in the test with HT29 colon, in the test on NCI-H23 lung, in the test with SF-268 CNS, in the test on NCI-H522 lung and in the test on CCRF-CEM leukemia was > 100 µM throughout. The TGI in the test with SK-OV-3 ovarian, in the test with MALME-3M melanoma and with TK-10 renal was > 100 µM throughout.
On to `O=C(c1cc(=O)c2ccc(O)cc2o1)c1ccc(Cl)cc1Cl`, for which the TGI in the test on RPMI-8226 leukemia is > 72.7 µM; in the test on HT29 colon, > 100 µM; in the test with NCI-H23 lung it was > 73.3 µM; in the test with SF-268 CNS, > 100 µM; in the test on NCI-H522 lung, > 59 µM; in the test with CCRF-CEM leukemia it was 39.6 µM. For the same compound, the results for the TGI in the test on SK-OV-3 ovarian, in the test with MALME-3M melanoma and in the test on TK-10 renal were > 100 µM, > 94.7 µM and > 100 µM, respectively.
Take `Cc1ccc2nc3c(Cl)cc(=O)cc-3sc2c1`: the TGI in the test on HT29 colon came out at 91.7 µM; in the test with SF-268 CNS it was 68.1 µM; in the test on NCI-H522 lung it was 39 µM; in the test on CCRF-CEM leukemia, 19.8 µM; in the test on MALME-3M melanoma, 75.9 µM; in the test with TK-10 renal, 53.8 µM.
Turning to `O=C1C=C2S[C@H]3C[C@]2(C=C1Br)c1c(c(O)c2c4c1=NCCC=4C=N2)N3`, the TGI in the test on HT29 colon is 1.55 µM; in the test on NCI-H23 lung, 2.57 µM; in the test with SF-268 CNS, 2.91 µM; in the test with NCI-H522 lung, 0.716 µM; with SK-OV-3 ovarian, 17.1 µM; with MALME-3M melanoma, 0.261 µM. Moreover, the TGI with SR leukemia was > 100 µM; in the test on TK-10 renal, 2.71 µM.
`CCOC(=O)C1=C(Nc2ccccc2)OC/C1=N\NC(=O)Cc1ccccc1`: the TGI in the test on RPMI-8226 leukemia, in the test with HT29 colon, with NCI-H23 lung, with SF-268 CNS, in the test with NCI-H522 lung and in the test on CCRF-CEM leukemia was > 50 µM each time. Also, the TGI in the test on SK-OV-3 ovarian, with MALME-3M melanoma and in the test with TK-10 renal was > 50 µM throughout.
For the compound `CCOc1ccccc1NC(=O)C(=O)CC(=O)C1=C(C)Nc2ccccc2S1`, the TGI in the test on RPMI-8226 leukemia, in the test with HT29 colon, in the test with NCI-H23 lung, in the test on SF-268 CNS, with NCI-H522 lung and in the test on CCRF-CEM leukemia was > 100 µM in each case. Moreover, the TGI in the test on SK-OV-3 ovarian, in the test on MALME-3M melanoma and in the test with TK-10 renal was > 100 µM each time.
`Cn1cc(-c2csc(-c3c[nH]c4ncccc34)n2)c2cc(Br)cnc21`: the GI50 was > 100 µM with RPMI-8226 leukemia; 6.75 µM in the test with HT29 colon; 2.8 µM in the test with NCI-H23 lung; 6.01 µM in the test on SF-268 CNS; 4.86 µM in the test with NCI-H522 lung; 6.81 µM in the test on CCRF-CEM leukemia. The GI50 in the test on SK-OV-3 ovarian was 3.25 µM; in the test with MALME-3M melanoma, 3.01 µM; in the test on TK-10 renal it was 3.77 µM. In addition, the TGI in the test on RPMI-8226 leukemia, in the test with HT29 colon, in the test with NCI-H23 lung, in the test on SF-268 CNS, in the test with NCI-H522 lung and with CCRF-CEM leukemia was > 100 µM in each case. Besides, the TGI in the test with SK-OV-3 ovarian, in the test with MALME-3M melanoma and with TK-10 renal was > 100 µM throughout.
With `COCCc1c(C)c(C#N)c2n(C)c3ccccc3n2c1=O`, the TGI in the test with RPMI-8226 leukemia, in the test with HT29 colon, in the test on NCI-H23 lung, with SF-268 CNS, with NCI-H522 lung and with SK-OV-3 ovarian was > 10 µM throughout. Also, the TGI in the test with MALME-3M melanoma, in the test with SR leukemia and with TK-10 renal was > 10 µM each time.
For `Cc1ccc(SSCCCS(=O)O)cc1`, the TGI in the test with HT29 colon was > 100 µM; with NCI-H23 lung it was > 100 µM; in the test with SF-268 CNS it was 48.2 µM; in the test on NCI-H522 lung it was 37.5 µM; in the test on SK-OV-3 ovarian, 85.9 µM; in the test with MALME-3M melanoma it was > 100 µM. In addition, the TGI with TK-10 renal is > 100 µM.
As for `NC(=S)N/N=C(/CC(=O)c1ccc([N+](=O)[O-])cc1)C(=O)Nc1ncc([N+](=O)[O-])s1`, the TGI in the test on RPMI-8226 leukemia, in the test on HT29 colon, in the test on NCI-H23 lung, with SF-268 CNS, in the test on CCRF-CEM leukemia and in the test with MALME-3M melanoma was > 100 µM throughout. Besides, the TGI with TK-10 renal was > 100 µM.
